Reference: patent US8426447B2, “Spiro-tricyclic ring compounds as beta-secretase modulators and methods of use” (Amgen Inc., priority 2008, dated 2013)
pIC50: −log10 of the molar value.

How the values were obtained:
BACE1 [1] = target: T1, BACE1 (Homo sapiens, UniProt P56817); assay: In Vitro Enzymatic BACE FRET (Fluorescence Resonance Energy Transfer) Assay; type: biochemical; details: read-out: BACE1 FRET assay
Procedure, shortened: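 First, compound and enzyme sit in 0.05 M acetate (pH 4.2, 10% DMSO final, 100 uM nonionic genapol). Next, 50 nM quenched FRET peptide starts the reaction for one hour. Last, Tris neutralises the mixture before fluorescence is measured.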

BACE1 [2] = target: T1, BACE1; assay: In Vitro BACE Cell-based Assay (HEK cell assay): Aβ40 in conditioned medium of cells stably expressing Amyloid Precursor Protein, sandwich ELISA; details: read-out: HEK cell assay
Procedure, shortened: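 First, APP-stable cells grow 24 h at 37° C., 5% CO2. Next, test compounds are added for 24 h (10 doses, 0.1% DMSO). Finally, medium Aβ40 is determined by pAb40/6E10 sandwich ELISA with Europium TRF, and IC50 is calculated.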

T1 sequence (P56817 46-501, species assumed): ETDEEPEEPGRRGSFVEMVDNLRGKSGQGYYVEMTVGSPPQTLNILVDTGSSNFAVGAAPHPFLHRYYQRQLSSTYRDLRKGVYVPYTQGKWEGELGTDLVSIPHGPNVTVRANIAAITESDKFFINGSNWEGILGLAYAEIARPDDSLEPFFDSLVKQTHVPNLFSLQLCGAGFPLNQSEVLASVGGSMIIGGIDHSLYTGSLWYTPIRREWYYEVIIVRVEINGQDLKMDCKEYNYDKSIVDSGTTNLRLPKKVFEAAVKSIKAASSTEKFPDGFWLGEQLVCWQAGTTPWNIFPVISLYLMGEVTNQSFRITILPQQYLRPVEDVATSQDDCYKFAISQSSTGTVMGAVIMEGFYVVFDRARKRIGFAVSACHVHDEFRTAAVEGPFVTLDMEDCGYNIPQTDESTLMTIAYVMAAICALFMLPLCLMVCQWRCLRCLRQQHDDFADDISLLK

SMILES | pIC50 (BACE1 [1]) | pIC50 (BACE1 [2]) | pIC50 (BACE1 [1]; Table IV, class symbols) | pIC50 (BACE1 [2]; Table IV, class symbols)
NC1=NC2(CO1)c1cc(C3CC3)ccc1Oc1ccc(C3CC3)cc12 [compound 760] | 5.30 to 6.00 | 5.30 to 6.00 | – | –
CC(C)(C)CC(=O)c1ccc2c(c1)[C@@]1(CSC(N)=N1)c1cc(-c3cncnc3)ccc1O2 [compound 762] | 6.00 to 7.00 | 5.30 to 6.00 | – | –
NC1=N[C@@]2(CO1)c1cc(-c3cccnc3)ccc1Oc1ccc(N3CCOCC3)cc12 [compound 764] | > 7.00 | > 7.00 | – | –
COc1ccc(-c2ccc3c(c2)[C@@]2(COC(N)=N2)c2cc(C#CC(C)(C)OC)cnc2O3)cn1 [compound 767] | 6.00 to 7.00 | 6.00 to 7.00 | – | –
NC1=N[C@]2(CO1)c1cc(-c3ccc(OC(F)F)cc3)ccc1Oc1ccc(-c3cncnc3)cc12 [compound 773] | > 7.00 | 6.00 to 7.00 | – | –
NC1=N[C@]2(CO1)c1cc(OC3COC3)ccc1Oc1ccc(-c3cncnc3)cc12 [compound 776] | 6.00 to 7.00 | 6.00 to 7.00 | – | –
NC1=N[C@]2(CO1)c1cc(OC3COC3)ccc1Oc1ccc(-c3cccnc3)cc12 [compound 777] | 6.00 to 7.00 | 6.00 to 7.00 | – | –
COc1ccncc1-c1ccc2c(c1)[C@]1(COC(N)=N1)c1cc(OCC(C)(C)C)ccc1O2 [compound 778] | 5.30 to 6.00 | 5.30 to 6.00 | – | –
CN(C)c1ncc(-c2ccc3c(c2)[C@]2(COC(N)=N2)c2cc(OCC(C)(C)C)ccc2O3)cn1 [compound 780] | 6.00 to 7.00 | 5.30 to 6.00 | – | –
CC(C)(C)COc1ccc2c(c1)[C@@]1(COC(N)=N1)c1cc(-c3ccc(C#N)nc3)ccc1O2 [compound 782] | > 7.00 | 6.00 to 7.00 | – | –
CNCc1ccc(-c2ccc3c(c2)[C@]2(COC(N)=N2)c2cc(OCC(C)(C)C)ccc2O3)cc1 [compound 784] | 6.00 to 7.00 | 5.30 to 6.00 | – | –
Cc1ccc(-c2ccc3c(c2)[C@]2(COC(N)=N2)c2cc(OCC(C)(C)C)ccc2O3)cn1 [compound 786] | 6.00 to 7.00 | 6.00 to 7.00 | – | –
NC1=N[C@@]2(CO1)c1cc(-c3cccnc3)ccc1Oc1cnc(C3=CCCCC3)cc12 [compound 789] | > 7.00 | > 7.00 | – | –
NC1=N[C@@]2(CO1)c1cc(-c3cccnc3)ccc1Oc1cnc(C3=CCOCC3)cc12 [compound 790] | > 7.00 | > 7.00 | – | –
NC1=N[C@@]2(CO1)c1cc(-c3cccnc3)ccc1Oc1cnc(C3CCCCC3)cc12 [compound 791] | > 7.00 | 6.00 to 7.00 | – | –
CC(C)(O)C#Cc1cnc2c(c1)[C@]1(COC(N)=N1)c1cc(-c3ccc(F)nc3)ccc1O2 [compound 794] | – | – | > 7.00 | > 7.00
CC1(COc2ccc3c(c2)[C@@]2(COC(N)=N2)c2cc(-c4cncnc4)cc(F)c2O3)COC1 [compound 795] | – | – | > 7.00 | > 7.00
NC1=N[C@]2(CO1)c1cc(CCC3(O)CCC3)ccc1Oc1ccc(-c3cncnc3)cc12 [compound 797] | – | – | > 7.00 | > 7.00
CC(C)(C)COc1ccc2c(c1)[C@]1(COC(N)=N1)c1cc(C(=O)NC3CC3)ccc1O2 [compound 798] | – | – | > 7.00 | > 7.00

SMILES | pIC50 (BACE1 [1]) | pIC50 (BACE1 [2]) | pIC50 (BACE1 [1]; Table IV, class symbols) | pIC50 (BACE1 [2]; Table IV, class symbols)
CN(C)C(=O)c1ccc2c(c1)[C@]1(COC(N)=N1)c1cc(OCC(C)(C)C)ccc1O2 [compound 799] | – | – | 6.00 to 7.00 | 6.00 to 7.00
CC(C)(C)C#Cc1ccc2c(c1)[C@]1(COC(N)=N1)c1cc(C3=CCOCC3)ncc1O2 [compound 800] | – | – | 6.00 to 7.00 | 5.30 to 6.00
CC(C)(C)COc1ccc2c(c1)[C@]1(COC(N)=N1)c1cc(C3CCCCC3)ccc1O2 [compound 802] | – | – | > 7.00 | 6.00 to 7.00
CC(C)(C)COc1ccc2c(c1)[C@]1(COC(N)=N1)c1cc(C3=CCCCC3)ccc1O2 [compound 803] | – | – | > 7.00 | 5.30 to 6.00
CCOc1ccc(-c2cnc3c(c2)[C@]2(COC(N)=N2)c2cc(OCC(C)(C)C)ccc2O3)cn1 [compound 804] | – | – | > 7.00 | > 7.00
COc1ncccc1-c1ccc2c(c1)[C@@]1(COC(N)=N1)c1cc(C#CC(C)(C)OC)cnc1O2 [compound 806] | – | – | > 7.00 | > 7.00
CC(C)(C)COc1ccc2c(c1)[C@@]1(COC(N)=N1)c1cc(-c3ccccc3)cnc1O2 [compound 807] | – | – | > 7.00 | > 7.00
NC1=N[C@@]2(CO1)c1cc(-c3cncnc3)ccc1Oc1ccc(-c3cccc(C(F)(F)F)c3)cc12 [compound 809] | – | – | > 7.00 | 6.00 to 7.00
NC1=N[C@]2(CO1)c1cc(C3=CCNCC3)ccc1Oc1ccc(-c3cccnc3)cc12 [compound 810] | – | – | > 7.00 | > 7.00
NC1=N[C@]2(CO1)c1cc(-c3ccc(C(F)(F)F)cc3)ccc1Oc1ccc(-c3cncnc3)cc12 [compound 811] | – | – | > 7.00 | 6.00 to 7.00
CC(C)(C)COc1ccc2c(c1)[C@]1(COC(N)=N1)c1cc(N3CCCCC3)ccc1O2 [compound 813] | – | – | 6.00 to 7.00 | 6.00 to 7.00
COc1ccc2c(c1)[C@]1(COC(N)=N1)c1c(ccc(-c3cncnc3)c1F)O2 [compound 814] | – | – | > 7.00 | 6.00 to 7.00
CC(C)(C)COc1ccc2c(c1)[C@]1(COC(N)=N1)c1cc(N3CCCC3)ccc1O2 [compound 815] | – | – | 6.00 to 7.00 | 5.30 to 6.00
CC(C)(C)OC(=O)N1CC=C(c2ccc3c(c2)[C@]2(COC(N)=N2)c2cc(-c4cccnc4)ccc2O3)CC1 [compound 819] | – | – | > 7.00 | 6.00 to 7.00
Cc1ccc(-c2ccc3c(c2)[C@]2(COC(N)=N2)c2cc(-c4cncnc4)ccc2O3)s1 [compound 820] | – | – | > 7.00 | > 7.00
COC(C)(C)C#Cc1cnc2c(c1)[C@]1(COC(N)=N1)c1cc(-c3cncnc3)ccc1O2 [compound 822] | – | – | > 7.00 | > 7.00
CC(C)(C)C#Cc1ccc2c(c1)[C@]1(COC(N)=N1)c1cc(-c3cccnc3)ncc1O2 [compound 824] | – | – | > 7.00 | 6.00 to 7.00
CC(C)(C)OC(=O)CCc1ccc2c(c1)[C@]1(COC(N)=N1)c1cc(-c3cncnc3)ccc1O2 [compound 826] | – | – | 6.00 to 7.00 | 5.30 to 6.00
CC(C)(C)COc1ccc2c(c1)[C@]1(COC(N)=N1)c1cc(C(C)(C)O)ccc1O2 [compound 827] | – | – | 6.00 to 7.00 | 5.30 to 6.00

The next lines start with the values.

pIC50 (BACE1 [1]) | pIC50 (BACE1 [2]) | pIC50 (BACE1 [1]; Table IV, class symbols) | pIC50 (BACE1 [2]; Table IV, class symbols) | SMILES
> 7.00 | 6.00 to 7.00 | – | – | CC(C)(C)CC(=O)c1ccc2c(c1)[C@]1(CSC(N)=N1)c1cc(-c3cncnc3)ccc1O2 [compound 761]
6.00 to 7.00 | 6.00 to 7.00 | – | – | CC(C)(C)OC(=O)Cc1ccc2c(c1)[C@]1(COC(N)=N1)c1cc(-c3cncnc3)ccc1O2 [compound 765]
> 7.00 | > 7.00 | – | – | CC(C)(C)C#Cc1cnc2c(c1)[C@]1(COC(N)=N1)c1cc(-c3ccc(F)nc3)ccc1O2 [compound 766]
6.00 to 7.00 | 6.00 to 7.00 | – | – | COC(C)(C)C#Cc1ccc2c(c1)[C@@]1(COC(N)=N1)c1cc(OCC(C)(C)O)ccc1O2 [compound 768]
6.00 to 7.00 | 5.30 to 6.00 | – | – | CCc1cc2c3c(ccc2o1)Oc1ncc(-c2cncnc2)cc1[C@]31COC(N)=N1 [compound 769]
> 7.00 | > 7.00 | – | – | CCC(C)(O)COc1ccc2c(c1)[C@]1(COC(N)=N1)c1cc(-c3cccnc3)ccc1O2 (stereo partly drawn) [compound 770]
> 7.00 | 6.00 to 7.00 | – | – | CC1(COc2ccc3c(c2)[C@@]2(COC(N)=N2)c2cc(-c4cccc(Cl)c4)cnc2O3)COC1 [compound 772]
> 7.00 | > 7.00 | – | – | CC1(COc2ccc3c(c2)[C@@]2(COC(N)=N2)c2cc(-c4cccc(F)c4)cnc2O3)COC1 [compound 774]
> 7.00 | > 7.00 | – | – | CC1(COc2ccc3c(c2)[C@@]2(COC(N)=N2)c2cc(-c4ccc(F)cc4)cnc2O3)COC1 [compound 775]
> 7.00 | 6.00 to 7.00 | – | – | CC(C)(C)COc1ccc2c(c1)[C@@]1(COC(N)=N1)c1cc(-c3cncs3)ccc1O2 [compound 781]
> 7.00 | 5.30 to 6.00 | – | – | CC(C)(C)COc1ccc2c(c1)[C@@]1(COC(N)=N1)c1cc(-c3csc(C(F)F)c3)ccc1O2 [compound 783]
> 7.00 | 5.30 to 6.00 | – | – | CSc1ccc(-c2ccc3c(c2)[C@]2(COC(N)=N2)c2cc(OCC(C)(C)C)ccc2O3)cc1 [compound 787]
5.30 to 6.00 | 5.30 to 6.00 | – | – | CON(C)C(=O)COc1ccc2c(c1)[C@]1(COC(N)=N1)c1cc(-c3cccnc3)ccc1O2 [compound 788]
– | – | 6.00 to 7.00 | 5.30 to 6.00 | CC(C)Cc1cc2c3c(ccc2o1)Oc1ncc(-c2cncnc2)cc1[C@]31COC(N)=N1 [compound 792]
– | – | > 7.00 | 6.00 to 7.00 | CC1(COc2ccc3c(c2)[C@]2(COC(N)=N2)c2cc(-c4cncnc4)cc(F)c2O3)COC1 [compound 796]
– | – | > 7.00 | > 7.00 | NC1=N[C@@]2(CO1)c1cc(-c3cccnc3)ccc1Oc1cnc(C3CCOCC3)cc12 [compound 801]
– | – | > 7.00 | > 7.00 | NC1=N[C@@]2(CO1)c1cc(-c3cncnc3)ccc1Oc1ncc(C3=CCOCC3)cc12 [compound 805]
– | – | 5.30 to 6.00 | 6.00 to 7.00 | CN1CCN(c2ccc3c(c2)[C@@]2(COC(N)=N2)c2cc(OCC(C)(C)C)ccc2O3)CC1 [compound 812]
– | – | < 5.30 | < 5.30 | COc1ccc2c(c1)[C@@]1(COC(N)=N1)c1c(ccc(-c3cncnc3)c1F)O2 [compound 816]
– | – | > 7.00 | > 7.00 | COC(C)(C)COc1ccc2c(c1)[C@@]1(COC(N)=N1)c1cc(-c3ccccc3)cnc1O2 [compound 818]
– | – | > 7.00 | > 7.00 | CC(C)(O)C#Cc1cnc2c(c1)[C@]1(COC(N)=N1)c1cc(-c3cncnc3)ccc1O2 [compound 823]
– | – | 6.00 to 7.00 | 6.00 to 7.00 | CCOC(=O)/C=C/c1ccc2c(c1)[C@]1(COC(N)=N1)c1cc(-c3cncnc3)ccc1O2 [compound 825]
